From patent publication US20050059726A1, “Pyrrolidine-2-ones as factor xa inhibitors” (priority 2001, published 2005)
Structures can show the parent of a compound that is named as a salt.

Target: human Factor Xa (Homo sapiens, UniProt P00742)
Test: In vitro assay for inhibition of Factor Xa (2), fluorogenic assay
Type: biochemical
Conditions: substrate Rhodamine 110, bis-(CBZ-glycylglycyl-L-arginine amide 10 μM), Ki calculated from IC50
Experimental: In Vitro Assay for Inhibition of Factor Xa (2)
All other compounds of the present invention were tested for their Factor Xa inhibitory activity as determined in vitro by their ability to inhibit human Factor Xa in a fluorogenic assay, using Rhodamine 110, bis-(CBZ-glycylglycyl-L-arginine amide as the fluorogenic substrate. Compounds were diluted from a 10 mM stock solution in dimethylsulfoxide at appropriate concentrations. Assay was performed at room temperature using buffer consisting of: 50 mM Tris-HCl, 150 mM NaCl, 5 mM CaCl2, pH 7.4. containing human Factor Xa (final conc. Of 0.0003U.ml−1). Compound and enzyme were preincubated for 15 min prior to addition of the substrate (final conc. of 10 μM). The reaction was stopped after 3 hrs with the addition of H-D-PHE-PRO-ARG-Chloromethylketone. […] To obtain IC50 values the data were analysed using ActivityBase® and XLfit®.
Calculation of Ki values:
Ki=IC50/(1+[Substrate]/Km)
The Ki value for the above assay can be obtained by dividing the IC50 value by 1.6.

human Factor Xa, sequence (P00742 235-488 limits assumed): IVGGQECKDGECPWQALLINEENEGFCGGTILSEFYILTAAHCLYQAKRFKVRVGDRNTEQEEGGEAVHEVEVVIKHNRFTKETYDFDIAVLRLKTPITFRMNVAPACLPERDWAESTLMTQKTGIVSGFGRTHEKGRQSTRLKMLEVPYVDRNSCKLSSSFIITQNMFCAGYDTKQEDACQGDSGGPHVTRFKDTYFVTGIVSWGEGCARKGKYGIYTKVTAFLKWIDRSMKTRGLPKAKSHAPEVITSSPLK
human Factor Xa, sequence (P00742 41-179 partner limits assumed): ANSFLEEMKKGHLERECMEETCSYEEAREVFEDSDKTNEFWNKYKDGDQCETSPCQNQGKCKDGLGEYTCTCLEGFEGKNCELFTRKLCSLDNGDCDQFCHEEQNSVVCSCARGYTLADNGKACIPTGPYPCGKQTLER

Row | Ki [nM] | SMILES
1 | < 10 | O=C1[C@@H](NS(=O)(=O)c2ccc3cc(Cl)ccc3c2)CCN1c1ccc(-n2ccnc2)cc1F [Example 122, 6-Chloro-N-{(3S)-1-[2-fluoro-4-(1H-imidazol-1-yl)phenyl]-2-oxopyrrolidin-3-yl}naphthalene-2-sulfonamide]
2 | < 20 | O=C1[C@@H](NS(=O)(=O)c2ccc3cc(Cl)ccc3c2)CCN1c1ccc(-c2cc[n+]([O-])cc2)cc1F [Example 76, 6-Chloro-N-{(3S)-1-[2-fluoro-4-(1-oxidopyridin-4-yl)phenyl]-2-oxopyrrolidin-3-yl}naphthalene-2-sulfonamide]
3 | < 1000 | CS(=O)(=O)c1ccccc1-c1ccc(N2CC[C@H](NS(=O)(=O)c3ccc(C#N)cc3)C2=O)c(F)c1 [Example 34]
4 | < 10 | CS(=O)(=O)c1ccccc1-c1ccc(N2CC[C@H](NS(=O)(=O)c3cc4cc(Cl)ccc4s3)C2=O)c(F)c1 [Example 12, 5-Chloro-N-{(3S)-1-[3-fluoro-2′-(methylsulfonyl)-1,1′-biphenyl-4-yl]-2-oxopyrrolidin-3yl}-1-benzothiophene-2-sulfonamide]
5 | < 10 | CS(=O)(=O)c1ccccc1-c1ccc(N2CC[C@H](NS(=O)(=O)c3cc4nc(Cl)ccc4s3)C2=O)c(F)c1 [Example 38, 5-Chloro-N-{(3S)-1-[3-fluoro-2′-(methylsulfonyl)-1,1′-biphenyl-4-yl]-2-oxopyrrolidin-3-yl}thieno[3,2-b]pyridine-2-sulfonamide]
6 | < 200 | CSc1ccccc1-c1cnc(N2CC[C@H](NS(=O)(=O)c3ccc4cc(Cl)ccc4c3)C2=O)s1 [Example 51, 6-Chloro-naphthalene-2-sulphonic Acid [(S)-1-[5-(2-methylsulphanylphenyl)-thiazol-2-yl]-2-oxo:pyrrolidin-3-yl]amide]
7 | < 10 | O=C1[C@@H](NS(=O)(=O)c2ccc3cc(Cl)ccc3c2)CCN1c1ccc(-c2ncccc2Cl)cc1F [Example 82, 6-Chloro-N-{(3S)-1-[4-(3-chloropyridin-2-yl)-2-fluorophenyl]-2-oxopyrrolidin-3-yl}naphthalene-2-sulfonamide]
8 | < 200 | O=C1[C@@H](NS(=O)(=O)c2ccc3cc(Cl)ccc3c2)CCN1c1ccc(-c2cncnc2)cc1F [Example 63, 6-Chloro-N-[(3S)-1-(2-fluoro-4-pyrimidin-5-ylphenyl)-2-oxopyrrolidin-3-yl]naphthalene-2-sulfonamide]
9 | < 200 | COc1ncc(-c2ccc(N3CC[C@H](NS(=O)(=O)c4ccc5cc(Cl)ccc5c4)C3=O)c(F)c2)c(OC)n1 [Example 56, 6-Chloro-N-{(3S)-1-[4-(2,4-dimethoxypyrimidin-5-yl)-2-fluorophenyl]oxopyrrolidin-3-yl}naphthalene-2-sulfonamide]
10 | < 200 | O=C1[C@@H](NS(=O)(=O)c2ccc3cc(Cl)ccc3c2)CCN1c1ccc(-c2ccsc2)cc1F [Example 67, 6-Chloro-N-[(3S)-1-(2-fluoro-4-thien-3-ylphenyl)-2-oxopyrrolidin-3-yl]naphthalene-2-sulfonamide]
11 | < 10 | CS(=O)(=O)c1ccccc1-c1ccc(N2CC[C@H](NS(=O)(=O)c3cc4sc(Cl)cc4s3)C2=O)c(F)c1 [Example 87, 5-Chloro-N-{(3S)-1-[3-fluoro-2′-(methylsulfonyl)-1,1′-biphenyl-4-yl]-2-oxopyrrolidin-3-yl}thieno[3.2-b]thiophene-2-sulfonamide]
12 | < 200 | CSc1ccc(-c2ccc(N3CC[C@H](NS(=O)(=O)c4ccc5cc(Cl)ccc5c4)C3=O)c(F)c2)cn1 [Example 60, 6-Chloro-N-((3S)-1-{2-fluoro-4-[6-(methylthio)pyridin-3-yl]phenyl}-2-oxopyrrolidin-3-yl)naphthalene-2-sulfonamide]
13 | < 10 | O=C1[C@@H](NS(=O)(=O)c2ccc3cc(Cl)ccc3c2)CCN1c1ccc(-c2ccncc2)cc1F [Example 55, 6-Chloro-N-[(3S)-1-(2-fluoro-4-pyridin-4-ylphenyl)-2-oxopyrrolidin-3-yl]naphthalene-2-sulfonamide]
14 | < 200 | O=C1[C@@H](NS(=O)(=O)c2ccc3cc(Cl)ccc3c2)CCN1c1ccc(-c2cncc(Br)c2)cc1F [Example 61, N-{(3S)-1-[4-(5-Bromopyridin-3-yl)-2-fluorophenyl]-2-oxopyrrolidin-3-yl}-6-chloronaphthalene-2-sulfonamide]

More lines, now with the values behind:

Row | SMILES | Ki [nM]
15 | CC(C)(C)OC(=O)N([C@H]1CCN(c2ccc(-c3ccccc3S(C)(=O)=O)cc2F)C1=O)S(=O)(=O)/C=C/c1ccc(Cl)s1 [Example 44, tert-Butyl [(E)-2-(5-chlorothien-2-yl)ethenyl]sulfonly{(3S)-1-[3-fluoro-2′-(methylsulfonyl)-1,1′-biphenyl-4yl]-2-oxopyrrolidin-3-yl}carbamate] | < 10
16 | O=C1[C@@H](NS(=O)(=O)/C=C/c2ccc(Cl)s2)CCN1c1ccc(-c2ccccc2C(F)(F)F)cn1 [Example 24, (E)-2-(5-Chlorothien-2-yl)-N-((3S)-2-oxo-1-{5-[2-(trifluoromethyl)phenyl]pyridin-2-yl}pyrrolidin-3yl)ethenesulfonamide] | < 10
17 | CC(C)(C)OC(=O)CN([C@H]1CCN(c2ccc(-c3ccccc3S(C)(=O)=O)cc2F)C1=O)S(=O)(=O)/C=C/c1ccc(Cl)s1 [Example 47, tert-Butyl ({[(E)-2-(5-chlorothien-2-yl)ethenyl]sulfonyl}{(3S)-1-[3-fluoro-2′-(methylsulfonyl)-1,1′-biphenyl-4-yl]-2-oxopyrrolidin-3-yl}amino)acetate] | < 10
18 | O=C1[C@@H](NS(=O)(=O)/C=C/c2ccc(Cl)s2)CCN1c1ccc([N+](=O)[O-])cc1F [Example 95, (E)-2-(5-Chloro-2-thienyl)-N-[(3S)-1-(2-fluoro-4-nitrophenyl)-2-oxopyrrolidinyl]ethenesulfonamide] | < 20
19 | C/C(=C\S(=O)(=O)N[C@H]1CCN(c2ccc(-n3ccnc3C[N+](C)(C)CC(N)=O)cc2F)C1=O)c1ccc(Cl)s1 [Example 142, 2-Amino-N-[(1-{4-[(3S)-3-({[(1E)-2-(5-chlorothien-2-yl)prop-1-enyl]sulfonyl}amino)-2-oxopyrrolidin-1-yl]-3-fluorophenyl}-1H-imidazol-2-yl)methyl]-N,N-dimethyl-2-oxoethanaminium formate] | < 10
20 | CN(C)C(=O)c1ccc(N2CC[C@H](N(CC(N)=O)S(=O)(=O)/C=C/c3ccc(Cl)s3)C2=O)c(F)c1 [Example 134, 4-[(3S)-3-((2-Amino-2-oxoethyl){[(E)-2-(5-chlorothien-2-yl)ethenyl]sulfonyl}amino)-2-oxopyrrolidin-1-yl]-3-fluoro-N,N-dimethylbenzamide] | < 10
21 | CC(=O)c1ccc(N2CC[C@H](NS(=O)(=O)/C=C/c3ccc(Cl)s3)C2=O)cc1 [Example 138, (E)-N-[(3S)-1-(4-Acetylphenyl)-2-oxopyrrolidin-3-yl]-2-(5-chlorothien-2-yl)ethenesulfonamide] | < 200
22 | CS(=O)(=O)c1ccccc1-c1ccc(N2CC[C@H](N(CC(N)=O)S(=O)(=O)/C=C/c3ccc(Cl)s3)C2=O)c(F)c1 [Example 46] | < 10
23 | CC(C)N(C=O)c1ccc(N2CC[C@H](NS(=O)(=O)/C=C/c3ccc(Cl)s3)C2=O)c(F)c1 [Example 120, (E)-2-(5-Chlorothien-2-yl)-N-((3S)-1-{2-fluoro-4-[formyl(isopropyl)amino]phenyl}-2-oxopyrrolidin-3-yl)ethenesulfonamide] | < 10
